According to US7901893B2, “NPC1L1 (NPC3) and methods of identifying ligands thereof” (Merck Sharp & Dohme Corp., priority 2004, dated 2011):

Tests used:
mouse NPC1L1 = target: T1, mouse NPC1L1 (Mus musculus, UniProt Q6T3U4); test: Effect of ezetimibe on cholesterol uptake, mouse NPC1L1 transfected CHO cells; format: cell-based; settings: EZ (10 μM), mNPC1L1(C7)
T1 construct: expressed in transfected cells; pCDNA3)
Method: (§1) The effect of ezetimibe on the ability of CHO cells stably transfected with mouse or rat NPC1L1 or mouse SR-B1 to take up ^3H-labeled cholesterol was evaluated in pulse-chase experiments. One cDNA clone of mouse NPC1L1 (C7) and three clones of rat NPC1L1 (C7, C17 and C21) were evaluated. The ability of CHO cells stably transfected with mouse SR-B1, mouse NPC1L1 and rat NPC1L1 to take up labeled cholesterol, in the absence of ezetimibe, was also evaluated in the pulse-chase experiments. Data generated in these experiments are set forth, below, in Tables 4 and 5. Additionally, the quantity of total cholesterol taken up by transfected and untransfected CHO cells in the presence of four different unlabeled cholesterol concentrations was also evaluated.
(§2) Starve. The maintenance media (F12 HAMS, 1% Pen/Strep, 10% FCS) was removed and the cells were rinsed with serum-free HAMS media. The serum-free media was then replaced with 1 mL “starve” media (F12 HAMS, Pen/Strep, 5% lipoprotein deficient serum (LPDS). The cells were then starved overnight.
(§3) Pre-Incubation/pre-dose. Media was removed from all plates and replaced with fresh starve media and preincubated for 30 minutes. Half of the wells received media containing ezetimibe (stock soln in EtOH; final conc.=10 μM).
(§4) ^3H-Cholesterol Pulse. The following was added directly to each well: • 0.5 μCi ^3H-cholesterol (˜1.1×10^6 dpm/well) in 50 μl of a mixed bile salt micelle • 4.8 mM sodium taurocholate (2.581 mg/mL) • 0.6 mM sodium oleate (0.183 mg/mL) • 0.25 mM cholesterol (0.1 mg/mL) • Dispersed in “starve” media by ultrasonic vibration • Final media cholesterol concentration=5 μg/mL
(§5) Labeled cholesterol pulse time points were 4, 12, 24 minutes and 4 hours. Triplicate wells were prepared for each treatment.
(§6) Wash. At designated times, media was aspirated and cells were washed once with Hobbs Buffer A (50 mM Tris, 0.9% NaCl, 0.2% bovine serum albumin (BSA), pH 7.4) and once with Hobbs Buffer B (50 mM Tris, 0.9% NaCl, pH 7.4 (no BSA)) at 37° C.
(§7) A. 4, 12, 24 minute time points: Cells were digested overnight with 0.2N NaOH, 2 mL/well, room temperature. One 1.5 mL aliquot was removed from each well, neutralized & counted for radioactivity by scintillation counting.
(§8) B. 4 hour time point: The digested cells were analyzed by thin-layer chromatography to determine the content of cholesterol ester in the cells.
(§9) Extracts were spotted onto TLC plates and run for 30 minutes in 2 ml hexane:isopropanol (3:2) mobile phase for 30 minutes, followed by a second run in 1 ml hexane:isopropanol (3:2) mobile phase for 15 minutes.
(§10) C. Protein determination of cell extracts. Plates containing a sample of the cell extracts were placed on orbital shaker at 120 rpm for indicated times and then extracts are pooled into 12×75 tubes. Plates were dried and NaOH (2 ml/well) added. The protein content of the samples were then determined. Two additional 50 μl aliquots from all wells were assayed for total protein by the Pierce micro BCA method. The quantity of labeled cholesterol observed in the cells was normalized to the quantity of protein in the cells.

mouse SR-B1 = target: T2, mouse SR-B1 (Mus musculus, UniProt Q61009); test: Effect of ezetimibe on cholesterol uptake, SR-B1 transfected CHO cells; format: cell-based; settings: EZ (10 μM), SR-BI
T2 construct: expressed in transfected cells
T2 sequence (Q61009 1-509): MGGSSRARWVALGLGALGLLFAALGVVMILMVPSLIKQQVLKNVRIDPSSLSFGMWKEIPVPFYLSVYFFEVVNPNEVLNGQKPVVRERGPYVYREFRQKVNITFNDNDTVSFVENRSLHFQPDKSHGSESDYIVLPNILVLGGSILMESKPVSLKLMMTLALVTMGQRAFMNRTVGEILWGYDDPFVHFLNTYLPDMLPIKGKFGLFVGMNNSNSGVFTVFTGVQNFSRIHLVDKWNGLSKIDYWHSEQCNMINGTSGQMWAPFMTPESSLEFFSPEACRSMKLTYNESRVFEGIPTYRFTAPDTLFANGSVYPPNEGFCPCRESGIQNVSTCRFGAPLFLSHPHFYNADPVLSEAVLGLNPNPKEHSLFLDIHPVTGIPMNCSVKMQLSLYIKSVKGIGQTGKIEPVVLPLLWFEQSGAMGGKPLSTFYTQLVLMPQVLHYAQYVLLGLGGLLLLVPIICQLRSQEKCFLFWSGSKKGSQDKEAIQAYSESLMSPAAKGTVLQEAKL
Method: as §1, §2, §3, §4, §5, §6, §7, §8, §9, §10

cholesterol absorption = settings: rat; cited from earlier work

Cholesteryl Ester, dpm ± sem (mouse NPC1L1; 4 Hour Pulse): 453 ± 118 dpm
Cholesteryl Ester, dpm/mg protein ± sem (mouse NPC1L1; 4 Hour Pulse): 3057 ± 776 dpm/mg protein
Free Cholesterol, dpm ± sem (mouse NPC1L1; 4 Hour Pulse): 77516 ± 1910 dpm
Free Cholesterol, dpm/mg protein ± sem (mouse NPC1L1; 4 Hour Pulse): 523803 ± 10386 dpm/mg protein
Total Cholesterol, dpm ± sem (mouse NPC1L1; 4 Min Pulse): 4569 ± 222 dpm
Total Cholesterol, dpm/mg protein ± sem (mouse NPC1L1; 4 Min Pulse): 30916 ± 1137 dpm/mg protein
Total Cholesterol, dpm ± sem (mouse NPC1L1; 12 Min Pulse): 6120 ± 755 dpm
Total Cholesterol, dpm/mg protein ± sem (mouse NPC1L1; 12 Min Pulse): 41712 ± 4054 dpm/mg protein
Total Cholesterol, dpm ± sem (mouse NPC1L1; 24 Min Pulse): 9749 ± 482 dpm
Total Cholesterol, dpm/mg protein ± sem (mouse NPC1L1; 24 Min Pulse): 74041 ± 3670 dpm/mg protein
Cholesteryl Ester, dpm ± sem (mouse SR-B1; 4 Hour Pulse): 9305 ± 401 dpm
Cholesteryl Ester, dpm/mg protein ± sem (mouse SR-B1; 4 Hour Pulse): 72782 ± 3181 dpm/mg protein
Free Cholesterol, dpm ± sem (mouse SR-B1; 4 Hour Pulse): 194519 ± 474 dpm
Free Cholesterol, dpm/mg protein ± sem (mouse SR-B1; 4 Hour Pulse): 1521341 ± 4185 dpm/mg protein
Total Cholesterol, dpm ± sem (mouse SR-B1; 4 Min Pulse): 10968 ± 821 dpm
Total Cholesterol, dpm/mg protein ± sem (mouse SR-B1; 4 Min Pulse): 92474 ± 2902 dpm/mg protein
Total Cholesterol, dpm ± sem (mouse SR-B1; 12 Min Pulse): 12349 ± 298 dpm
Total Cholesterol, dpm/mg protein ± sem (mouse SR-B1; 12 Min Pulse): 98956 ± 4447 dpm/mg protein
Total Cholesterol, dpm ± sem (mouse SR-B1; 24 Min Pulse): 23558 ± 1310 dpm
Total Cholesterol, dpm/mg protein ± sem (mouse SR-B1; 24 Min Pulse): 198725 ± 11713 dpm/mg protein
SMILES: O=C1[C@H](CC[C@H](O)c2ccc(F)cc2)[C@@H](c2ccc(O)cc2)N1c1ccc(F)cc1 [ezetimibe]
potency (ED50) in vivo (cholesterol absorption): 0.03 mpk
